Entries after “also recorded” stand apart in the source; their conditions may differ. {PPP} = triphosphate
Columns and labels:
[1] = test system: B16-F10 melanoma cell line; test: PRR tolerance: IFN-β production by pretreated B16-F10 cells after secondary treatment; assay type: cell-based, mouse; conditions: FIG. 8; for IFN-β production, cells pre-treated with mixture of 1-MT and CH223191 versus DMSO: substance given as mixture of IDO inhibitor and AHR inhibitor; for IFN-β production after secondary treatment, cells pretreated with the substance versus control: pretreatment at sublethal dose overnight, then pIC/DF complex 0.6 μg/ml
Protocol: (§1) In addition to prior activation of MDA5, prior activation of TLR4, RIG-I, and STING induced self- and cross-tolerance of same and different PRRs.
(§2) In particular, mouse pancreatic cancer cell line PANC-02 and melanoma cell line B16-F10 were pretreated with dH2O, MDA5 agonist (pIC/DF complex), or TLR4 agonist (HMGB1) in the presence of dimethyl sulfoxide (DMSO) (vehicle control), CH223191 (AHR inhibitor), 1-MT (IDO inhibitor), or L-Kyn (AHR activator). After overnight incubation, the cells were replenished with fresh culture media and treated with pIC/DF complex (0.6 μg/ml). One day after second treatment, IFN-β production was measured using ELISA. (n=3).

[2] = test system: PANC-02 mouse pancreatic cancer cell line; test: PRR tolerance: IFN-β production by pretreated PANC-02 cells after secondary treatment; assay type: cell-based; conditions: FIG. 8; for IFN-β production, cells pre-treated with mixture of 1-MT and CH223191 versus DMSO: substance given as mixture of IDO inhibitor and AHR inhibitor; for IFN-β production after secondary treatment, cells pretreated with the substance versus control: pretreatment at sublethal dose overnight, then pIC/DF complex 0.6 μg/ml
Protocol: as §1, §2

Mouse macrophage cells = test: PRR tolerance: IFN-β production by pretreated macrophages after secondary treatment; assay type: cell-based; conditions: for IFN-β production, cells pre-treated with mixture of 1-MT and CH223191 versus DMSO: substance given as mixture of IDO inhibitor and AHR inhibitor, FIG. 9; for IFN-β production after secondary treatment, cells pretreated with the substance versus control: pretreatment overnight, then cytoplasmic PRR agonists, FIG. 9B
Protocol: as §1
(§3) Mouse BM-DCs were treated with pIC/DF complex (cytoplasmic MDA5), ICR4/DF complex (cytoplasmic RIG-I), 2′3′-cGAMP (cytoplasmic STING), or transfection agent DF alone (FIG. 9A). Mouse macrophage cells were treated with dH2O (control), LPS (surface TLR4), or HMGB1 (surface TLR4), followed by treatment with DMSO (control) or mixture of CH223191 (AHR inhibitor) and 1-MT (IDO inhibitor) (FIG. 9B). After overnight incubation, the cells were replenished with fresh culture media and treated with indicated cytoplasmic PRR agonists. Levels of IFN-β production were measured using ELISA. □ P<0.05.

[3] = test system: mouse pancreatic, adenocarcinoma, and sarcoma cells; test: Antitumor activities in mouse pancreatic cancer and sarcoma cells (overall statements); assay type: cell-based; conditions: FIGS. 4A-4C
Protocol: The antitumor effects of RigantmiR-21 are not limited to melanoma cells. KPC-4839 (mouse pancreatic ductal adenocarcinoma), PANC-02 (mouse pancreatic adenocarcinoma) and mouse sarcoma cell line cells were transfected with indicated ICR4, RigantmiR-21, mutant RigantmiR-21, or anti-miR-21 (0.6 μg/ml) using DharmaFECT (DF). After overnight incubation, IFN-β production by these cells was determined using ELSIA. (n=3). As shown in FIGS. 4A-4C, RigantmiR-21 treatments induced cell death and IFN-β production by mouse pancreatic, adenocarcinoma, and sarcoma cells that are also resistant to RIG-I agonist ICR4.

[4] = test system: B16-F10 mouse melanoma cells; test: Cytotoxicity (MTT assay) in B16-F10 cells; assay type: cell-based; conditions: ICR4-liposome complex 0.6 μg/ml, overnight incubation
Protocol: (§4) B16-F0 and B16-F10 mouse melanoma cells lines are originated from the same parental cell line but they have different metastatic ability. B16-F0 cell line has no or marginal metastatic ability but B16-F10 cell line has potent metastatic ability. B16-F0 and B16-F10 cells (1×10^4) were treated with RIG-I agonist ICR4-liposome complex (0.6 μg/ml). After overnight incubation, cytotoxicity and IFN-β production by the cells were measured using MTT assay and ELISA, respectively. […] Tumor suppressor proteins, such as programmed cell death 4 (PDCD4) and phosphatase and tensin homolog (PTEN), and pre-miR-21 levels in B16-F0 and B16-F10 cells were measured using real-time qPCR. […] It was hypothisized that miR-21 would interfere with antitumor effects of RIG-I agonists in B16-F10 melanoma cells.

[5] = test system: B16-F10 mouse melanoma cells; test: IFN-β production (ELISA) by B16-F10 cells; assay type: cell-based; conditions: for IFN-β production compared to ICR2 and ICR2AS conjugated with seed mutant anti-miR-21: FIG. 6B, n=3
Protocol: as §4
To improve therapeutic effects of RIG-I agonists in B16-F10 cells, we designed and generated a novel RIG-I-activating RNA molecule (named RigantmiR-21) that is composed of a RIG-I-activating RNA structure (ICR4: 5′ppp-containg double stem-loop RNA) and a complementary sequence to mature miR-21. B16-F10 melanoma cells were transfected once or twice with RigantmiR-21, mutant RigantmiR-21, anti-miR-21, or ICR4 (0.6 μg/ml) using liposomal transfection agent DharmaFECT (DF). The expression of miR-21 target genes was determined using qPCR. IFN-β production was determined using ELISA. […] Anti-miR-21, ICR4, and RigantmiR-21 RNAs were complexed with in vivo transfection agent jet-PEI. Jet-PEI alone or RNA-jet-PEI complexes (25 μg) were injected thrice intratumorally into B16-F10 melanoma-bearing immunocompetent mice. (n=6).
Additionally, conjugation of anti-miR-21 improved the ability of other types of RIG-I agonists, such as ICR2 and ICR2AS^4 (sequences shown in FIG. 6A) to induce IFN-β production by cancer cells.

[6] = test system: B16-F0 mouse melanoma cells; test: IFN-β production (ELISA) by B16-F0 cells; assay type: cell-based; conditions: for IFN-β production after first and second transfection: 12.5 nM, DharmaFECT, one day after first and second transfection
Protocol: as §4
B16-F0 mouse melanoma cells were transfected with ICR4, RigantmiR-21, mutant RigantmiR-21, or anti-miR-21 at 12.5 nM using DharmaFECT (DF). After overnight incubation, the cells were replenished with fresh culture media, followed by another transfection with the same dose of RNAs. One day after the first and second transfection, IFN-β production by these cells were determined using ELSIA.
(§5) B16-F0 mouse melanoma cells or bone marrow-derived dendritic cells (BM-DCs) were transfected once (x1) or twice (x2) with a complex of polyI:C (pIC) (0.6 μg/ml) and transfection agent jet-PEI. IFN-β production by the cells one day after each transfection was determined using ELISA.

Mouse BM-DCs = test: PRR tolerance: IFN-β production by pretreated BM-DCs after secondary treatment; assay type: cell-based; conditions: pretreatment overnight, then cytoplasmic PRR agonists; FIG. 9A
Protocol: as §1, §3

[7] = test system: Human and murine cancer cell lines and human normal cells; test: Cytotoxicity (MTT assay) in cancer cell lines and normal cells; assay type: cell-based; conditions: transfected 0.8 mg/ml, 72 h after treatment, FIG. 2
Protocol: Human and murine cancer cell lines and human normal cells in 96-well plate (7000 cells/well) were transfected with RIG-I agonist 5′ppp ssRNA ICR4 ([…]). Cells were harvested 72 h after treatment and analyzed for cytotoxicity using MTT assay. N=3. *, P<0.05.

[8] = test system: B16-F0 mouse melanoma cells; test: Cytotoxicity (MTT assay) in B16-F0 cells; assay type: cell-based; conditions: for cytotoxic effects after repeated treatments: two transfections at various concentrations, DharmaFECT, MTT three days after first transfection
Protocol: as §4
B16-F0 mouse melanoma cells were transfected with ICR4, RigantmiR-21, mutant RigantmiR-21, or anti-miR-21 at various concentrations using DharmaFECT (DF). After overnight incubation, the cells were replenished with fresh culture media, followed by another transfection with the same dose of RNAs. Three days after the first transfection, cytotoxicity levels were measured using MTT assay.

[9] = test system: bone marrow-derived dendritic cells (BM-DCs); test: IFN-β production (ELISA) by BM-DCs after single or repeated pIC/jet-PEI transfection; assay type: cell-based, mouse; conditions: pIC 0.6 μg/ml with jet-PEI, transfected once or twice, one day after each transfection
Protocol: as §5

[10] = test system: B16-F10 melanoma-bearing mice; test: Anticancer response (survival) after single or multiple intratumoral pIC/jet-PEI injections; assay type: in vivo, mouse; conditions: pIC/jet-PEI complex 25 μg intratumorally once or thrice
[11] = test system: 4T1 mouse breast cancer cells, B16-F10 mouse melanoma cells, 403688 mouse sarcoma cells, and WM266.4 human melanoma cells; test: IFN-β production (ELISA) by different cancer cells after first and second transfection with RIG-I agonists; assay type: cell-based; conditions: DharmaFECT, one day after first and second transfection; FIG. 11
Protocol: 4T1 mouse breast cancer cells, B16-F10 mouse melanoma cells, 403688 mouse sarcoma cells, and WM266.4 human melanoma cells were transfected with indicated RIG-I agonists using liposomal transfection agent DharmaFECT (DF). After overnight incubation, the cells was replenished with fresh culture media, followed by another transfection with the same RIG-I agonists. One day after first and second transfection IFN-β production by these cells were determined using ELSIA.

[12] = ICR4-liposome complex 0.6 μg/ml, overnight incubation, ELISA

Cc1ccccc1N=Nc1ccc(NC(=O)c2ccnn2C)c(C)c1 [CH223191]
IFN-β production, cells pre-treated with mixture of 1-MT and CH223191 versus DMSO [1]: significantly increased
IFN-β production, cells pre-treated with mixture of 1-MT and CH223191 versus DMSO [2]: significantly increased
IFN-β production, cells pre-treated with mixture of 1-MT and CH223191 versus DMSO (Mouse macrophage cells): significantly increased

Nc1ccccc1C(=O)CC(N)C(=O)O (stereo not shown) [Kyn, kynurenine]
IFN-β production after secondary treatment, cells pretreated with the substance versus control [1]: significantly decreased
IFN-β production after secondary treatment, cells pretreated with the substance versus control [2]: significantly decreased

lipopolysaccharide [LPS]
IFN-β production after secondary treatment, cells pretreated with the substance versus control (Mouse macrophage cells): significantly decreased

ICR4: immunogenic cell-killing RNA RIG-I agonist, 5′ppp-containing double stem-loop ssRNA; SEQ ID NO: 1 (GGAUGCGGUACCUGACAGCAUCCUAAACUCAUGGUCCAUGUUUGUCCAUGGACCA; RNA, 5' {PPP}, backbone not given here; double stem-loop single-stranded RNA) [reference compound]
response of the cells to the RIG-I agonist (resistance) [3]: resistant
cytotoxicity (cell death) [4]: underwent cell death and IFN-β production
IFN-β production [5, 12]: underwent cell death and IFN-β production
IFN-β production after first and second transfection ([6]; ELISA): significantly reduced and not
IFN-β production [6, 12]: underwent cell death and IFN-β production
IFN-β production after secondary treatment, cells pretreated with the substance versus control (Mouse BM-DCs): significantly decreased
% cytotoxicity, cancer versus normal cells [7]: differentially sensitive; also recorded: Differential sensitivity
sensitivity to antitumor effects, B16-F0 cell line compared with B16-F10 cell line ([8]; 0.6 μg/ml, overnight, FIGS. 1A and 1B): much more sensitive
cytotoxicity (cell death) ([8]; ICR4-liposome complex 0.6 μg/ml, overnight incubation, MTT assay): underwent cell death and IFN-β production
cytotoxic effects after repeated treatments [8]: gradually augmented

Cn1cc(C[C@H](N)C(=O)O)c2ccccc21 [1-MT, 1-methyl tryptophan]
IFN-β production, cells pre-treated with mixture of 1-MT and CH223191 versus DMSO [1]: significantly increased
IFN-β production, cells pre-treated with mixture of 1-MT and CH223191 versus DMSO [2]: significantly increased
IFN-β production, cells pre-treated with mixture of 1-MT and CH223191 versus DMSO (Mouse macrophage cells): significantly increased

ICR2-anti-miR-21: RIG-I agonist ICR2 conjugated with anti-miR-21; SEQ ID NO: 7 (GGAUGCGGUACCUGACAGCAUCCUCAACAUCAGUCUGAUAAGCUA; listed as RNA, further chemistry not given here)
IFN-β production compared to ICR2 and ICR2AS conjugated with seed mutant anti-miR-21 [5]: increased induction

Nc1nc2c(ncn2[C@@H]2O[C@@H]3COP(=O)(O)O[C@H]4[C@@H](O)[C@H](n5cnc6c(N)ncnc65)O[C@@H]4COP(=O)(O)O[C@@H]2[C@@H]3O)c(=O)[nH]1 [2′3′-cGAMP]
IFN-β production after secondary treatment, cells pretreated with the substance versus control (Mouse BM-DCs): significantly decreased

polyinosinic-polycytidylic acid [polyI:C]
IFN-β production after retreatment [9]: reduced
IFN-β production after secondary treatment, cells pretreated with the substance versus control [1]: significantly decreased
IFN-β production after secondary treatment, cells pretreated with the substance versus control [2]: significantly decreased
anticancer responses (survival), multiple treatments compared to single treatment [10]: did not significantly enhance
IFN-β production after retreatment ([6]; pIC 0.6 μg/ml with jet-PEI, transfected once or twice, one day after each transfection): reduced
IFN-β production after secondary treatment, cells pretreated with the substance versus control (Mouse BM-DCs): significantly decreased

ICR2AS-anti-miR-21: RIG-I agonist ICR2AS conjugated with anti-miR-21; SEQ ID NO: 9 (GGAUGCUGUCAGGUACCGCAUCCUCAACAUCAGUCUGAUAAGCUA; listed as RNA, further chemistry not given here)
IFN-β production compared to ICR2 and ICR2AS conjugated with seed mutant anti-miR-21 [5]: increased induction

B1: RigantmiR-146a: nucleic acid molecule comprising a RIG-I agonist sequence and a miR-146a antagonist sequence; SEQ ID NO: 4 (nucleic acid)
chain: GGAUGCGGUACCUGACAGCAUCCUCCCCCGCAUUCCAUGGUCAACCCAUGGAAUUCAGUUCUCA
modifications: listed as RNA, chemistry not given here
IFN-β production by different cancer cells [11]: differentially induce

B2: mutant RigantmiR-21: composed of ICR4 and a non-complementary sequence to miR-21; SEQ ID NO: 3 (nucleic acid)
chain: GGAUGCGGUACCUGACAGCAUCUUGAAAUAAGGACUGAUGCUCAACAUCAGUCUGACACUCCA
modifications: chemistry not fully specified
IFN-β production after first and second transfection ([6]; ELISA): significantly reduced
cytotoxic effects after repeated treatments [8]: gradually augmented

B3: high mobility group box 1 (protein, UniProt P09429 1-215, looked up)
High mobility group protein B1: MGKGDPKKPRGKMSSYAFFVQTCREEHKKKHPDASVNFSEFSKKCSERWKTMSAKEKGKFEDMAKADKARYEREMKTYIPPKGETKKKFKDPNAPKRPPSAFFLFCSEYRPKIKGEHPGLSIGDVAKKLGEMWNNTAADDKQPYEKKAAKLKEKYEKDIAAYRAKGKPDAAKKGVVKAEKSKKKKEEEEDEEDEEDEEEEEDEEDEDEEEDDDDE
notes: TLR4 agonist protein
IFN-β production after secondary treatment, cells pretreated with the substance versus control [1]: significantly decreased
IFN-β production after secondary treatment, cells pretreated with the substance versus control [2]: significantly decreased
IFN-β production after secondary treatment, cells pretreated with the substance versus control (Mouse macrophage cells): significantly decreased

From patent US20220168331A1, “PRR-Activating and MicroRNA-Inhibiting Molecules and Methods of Using Same” (Duke University, priority 2019, published 2022)
